Experimental data from patent US7723326B2, “Heterocyclic amide derivatives as RXR agonists for the treatment of dyslipidemia, hypercholesterolemia and diabetes” (Janssen Pharmaceutica N.V., priority 2005, dated 2010).

What was measured:
[1] = tested on: ABCA1 mRNA in THP-1 cells; assay: ABCA1 bDNA assay (ABCA1 mRNA induction); assay type: cell-based; details: Homo sapiens; for Emax at 3 µM: relative to MX-6054, read-out: ABCA1 % max MX-6054; for EC50: ABCA1 mRNA induction, usually 18-24 hrs
Experimental: THP-1 cells, a human monocytic cell line, were obtained from ATCC and maintained in RPMI (Gibco) supplemented with 10% fetal bovine serum (Gibco), 2mM L-glutamine and 1% antibiotic-antimycotic in 5% CO2 at 37° C. For ABCA1 mRNA induction assays, the cells were pelleted and resuspended in RPMI supplemented with 0.5% charcoal treated serum (Hyclone), 2 mM glutamine and 1% antibiotic-antimycotic. The cells were plated at a density of 40,000 cells/90 μl and incubated as above for at least 4 hours before the initiation of treatments. Compounds were prepared as 10 mM stocks in DMSO. For treatments, the compounds were diluted in medium and 10 μl of 10× stocks were added to the cells at a final concentration 0.1% DMSO. The cells were incubated for the desired amount of time (usually 18-24 hrs) and then lyzed with 50 μl of Quantigene HV bDNA lysis buffer which also contained the ABCA1 bDNA probes (probe sequences shown below): […]

[2] = target: T1, RXR ligand binding domain (accession number X52773) fused with the DNA binding domain of yeast GAL4 (Homo sapiens, UniProt P19793); assay: RXR co-transfection assay (GAL4-LBD luciferase reporter in HEK293 cells); assay type: cell-based; details: 16-18 hours
T1 construct: expressed in transfected cells; host or cells: HEK293
T1 sequence (P19793 227-458 limits assumed): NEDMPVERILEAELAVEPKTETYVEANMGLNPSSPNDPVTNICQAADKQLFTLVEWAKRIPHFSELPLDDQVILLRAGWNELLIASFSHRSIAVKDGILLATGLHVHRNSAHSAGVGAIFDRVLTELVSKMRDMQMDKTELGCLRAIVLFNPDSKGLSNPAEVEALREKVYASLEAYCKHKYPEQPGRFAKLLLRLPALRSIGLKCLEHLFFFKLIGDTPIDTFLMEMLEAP
Experimental: The nucleic acid sequence from 676-1464bp (accession number X52773) encoding the ligand binding domains was subcloned into the pM vector (BD Biosciences Clontech, Palo Alto, Calif.) and were fused with the DNA binding domain of yeast GAL4. HEK293 cells were cultured in DMEM/F12 medium supplemented with 10% FBS and 1% 1-glutamine (growth medium). Cells were seeded at a density of 5-10×10^6 cells in 50 ml of growth medium and left overnight, The medium was removed and the cells were washed with 15 ml of OptiMEM serum free medium (Invitrogen Corp). The cells were transfected using OptiMEM serum free medium and DMRIE transfection reagent (Invitrogen Corp). Approximately 10-30 ng of DNA for the different receptors and 5-10 ng of the luciferase reporter (1:1 ratio for RAR and 4:1 ratio for RXR of receptor DNA:reporter DNA) were gently mixed with 51 μl of DMRIE reagent in a total volume of 17 ml of OptiMEM medium. Eighteen hours after transfection, the cells were washed once with growth medium and then incubated for 6 hrs in 30 ml of growth medium. The cells were then trypsinized, and reseeded at a density of 50,000 per well in 96 well plates and left overnight. The medium was replaced with 90 μl of medium containing DMEM/F12 supplemented with 0.5% charcoal-treated FBS (HyClone; Logan, Utah) and 1% glutamine. Compounds or vehicle were added in 10 μl of 10× concentration of compound or vehicle (0.1% dimethyl sulfoxide). The cells were treated for 16-18 hours, lysed and assayed for luciferase activity using the Steady Gio luciferase assay kit (Promega, Madison, Wis.).

EC50 [1]	EC50 [2]	Compound	Emax at 3 µM [1]
> 2000 nM	61.2 nM	CCN1C(=O)C(C)(C)Oc2cc(C)c(-c3cc(/C(C)=C/C(=O)O)ccc3OC(F)(F)F)cc21 [Compound 11, 3-[3-(4-Ethyl-2,2,7-trimethyl-3-oxo-3,4-dihydro-2H-benzo[1,4]oxazin-6-yl)-4-trifluoromethoxy-phenyl]-but-2-enoic acid]	75.5%
> 2000 nM	709 nM	CCN1C(=O)C(C)(C)Oc2cc(C)c(-c3cc(CCC(=O)O)ccc3OC(F)(F)F)cc21 [Compound 12, 3-[3-(4-Ethyl-2,2,7-trimethyl-3-oxo-3,4-dihydro-2H-benzo[1,4]oxazin-6-yl)-4-trifluoromethoxy-phenyl]-propionic acid]	
> 2000 nM	347 nM	Cc1cc2c(cc1-c1cc(CCC(=O)O)ccc1OC(F)(F)F)N(C(C)C)C(=O)C(C)(C)O2 [Compound 13, 3-[3-(4-Isopropyl-2,2,7-trimethyl-3-oxo-3,4-dihydro-2H-benzo[1,4]oxazin-6-yl)-4-trifluoromethoxy-phenyl]-propionic acid]	
> 2000 nM	> 2000 nM	CCN1C(=O)OC(C(C)C)c2cc(C)c(-c3cc(CCC(=O)O)ccc3OC(F)(F)F)cc21 (stereo not shown) [Compound 18, 3-[3-(1-Ethyl-4-isopropyl-6-methyl-2-oxo-1,4-dihydro-2H-benzo[d][1,3]oxazin-7-yl)-4-trifluoromethoxy-phenyl]-propionic acid]	4.5%
